Results published in article PMC11364019, “Capturing the blue-light activated state of the Phot-LOV1 domain from Chlamydomonas reinhardtii using time-resolved serial synchrotron crystallography” (IUCrJ, 2024).

Biological target: T1, CrPhotLOV1 (Chlamydomonas reinhardtii, UniProt Q8LPD9)
T1 construct: gene PHOT; LOV1 domain, residues 16-133; N-terminal His-tag (pET16b) removed by limited trypsin proteolysis; expressed in E. coli BL21 DE3
T1 sequence (Q8LPD9 16-133): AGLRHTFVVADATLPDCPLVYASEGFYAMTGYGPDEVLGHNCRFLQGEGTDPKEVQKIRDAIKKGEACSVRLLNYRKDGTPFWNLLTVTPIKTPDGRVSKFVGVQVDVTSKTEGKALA
Experiment: X-ray crystallography (cryo, serial and time-resolved serial synchrotron); FTIR difference spectroscopy on crystals
Assay type: binding
Conditions: dark state: non-covalent; after blue light: covalent thioether adduct of Cys57 S-gamma to FMN C4a; crystals at pH 6.5; 100 K and room temperature

Cc1cc2nc3c(=O)[nH]c(=O)nc-3n(C[C@H](O)[C@H](O)[C@H](O)COP(=O)(O)O)c2cc1C [FMN, flavin mononucleotide]
X-ray crystallography (cryo, serial and time-resolved serial synchrotron); FTIR: light-induced formation of the thioether covalent adduct
